Read-outs that look alike come from different tables or passages of the source.
What was measured:
DGKα = DGKα (Homo sapiens (Human), UniProt P23743); assay: biochemical; assay type: biochemical; conditions: liposome (LIPGLO) assay; read-out: DGKα LIPGLO IC50
naïve human CD8 T cells = assay: CellTiter-Glo CD8 T cell proliferation assay; assay type: cell-based; conditions: read-out: CD8 GLO Normalized EC50
Procedure: Assay 4: CellTiter-Glo CD8 T Cell Proliferation Assay
Frozen naïve human CD8 T cells were thawed in RPMI+10% FBS, incubated for 2 h in 37° C., and counted. The 384-well tissue culture plate was coated overnight at 4° C. with 20 μl anti-human CD3 at 0.1 μg/mL in plain RPMI, which was removed off the plate before 20 k/40 μL CD8 T cells with 0.5 μg/ml soluble anti-human CD28 were added to each well. The compounds were echoed to the cell plate immediately after the cells were plated. After 72 h incubation at 37° C. incubator, 10 μL CellTiter-glo reagent (Promega catalog number G7570) was added to each well. The plate was vigorously shaken for 5 mins, incubated at room temperature for another 15 mins and read on Envision for CD8 T cell proliferation. In analysis, 0.1 μg/mL anti-CD3 and 0.5 μg/mL anti-CD28 stimulated CD8 T cell signal was background.

human DGKζ = human DGKζ (Homo sapiens (Human), UniProt Q13574); assay: biochemical; assay type: biochemical; conditions: read-out: DGKζ LIPGLO IC50
[1] = system: Human venous whole blood (IFN-γ); assay: Human whole blood IFN-γ assay; assay type: cell-based; conditions: Homo sapiens, 24 h, human whole blood, anti-CD3 plus anti-CD28, 24 hours; read-out: INFg Whole Blood Normalized Agonist EC50
Procedure: Assay 10: Human Whole Blood IFN-γ Assay
Human venous whole blood (22.5 μL per well), obtained from healthy donors, was pre-treated with compounds for one hour at 37° C. in a humidified 95% air/5% CO2 incubator. The blood was stimulated with 2.5 μL anti-human CD3 and anti-CD28 mAb at a final concentration of 1 μg/mL each for 24 hours at 37° C. IFN-γ in the supernatants was measured using AlphLISA kit (Cat #AL217).

[2] = system: OT-1 CD8+ T cells with SIINFEKL-loaded MC38 tumor cells; assay: Murine cytotoxic T lymphocyte assay (IFN-γ); assay type: cell-based, mouse; conditions: murine cytotoxic T lymphocyte, IFN-γ, read-out: msCTL INFg IC50
Text: Assay 6: Murine Cytotoxic T Lymphocyte Assay
An antigen-specific cytolytic T-cell (CTL) assay was developed to evaluate functionally the ability of DGKα and DGKζ inhibitors to enhance effector T cell mediated tumor cell killing activity. CD8+ T-cells isolated from the OT-1 transgenic mouse recognize antigen presenting cells, MC38, that present the ovalbumin derived peptide […]. Recognition of the cognate antigen initiates the cytolytic activity of the OT-1 antigen-specific CD8+ T cells.
Functional CTL cells were generated as follows: OT-1 splenocytes from 8-12 week old mice were isolated and expanded in the presence of the […] peptide at 1 μg/mL and mIL2 at 10 U/mL. After three days, fresh media with […] was added. On day 5 of the expansion, the CD8+ T cells were isolated and ready for use. Activated CTL cells may be stored frozen for 6 months. Separately, one million MC38 tumor cells were pulsed with 1 μg/mL of […]-OVA peptide for 3 hours at 37° C. The cells were washed (3×) with fresh media to remove excess peptide. Finally, CTL cells that were pretreated with DGK inhibitors for 1 hour in a 96-well U bottom plate were combined with the antigen loaded MC38 tumor cells at a 1:10 ratio. The cells were then spun at 700 rpm for 5 min and placed in an incubator overnight at 37° C. After 24 hours, the supernatant was collected for analysis of IFN-γ cytokine levels by AlphaLisa purchased from Perkin Elmer.

DGKα, sequence (P23743 whole entry, looked up): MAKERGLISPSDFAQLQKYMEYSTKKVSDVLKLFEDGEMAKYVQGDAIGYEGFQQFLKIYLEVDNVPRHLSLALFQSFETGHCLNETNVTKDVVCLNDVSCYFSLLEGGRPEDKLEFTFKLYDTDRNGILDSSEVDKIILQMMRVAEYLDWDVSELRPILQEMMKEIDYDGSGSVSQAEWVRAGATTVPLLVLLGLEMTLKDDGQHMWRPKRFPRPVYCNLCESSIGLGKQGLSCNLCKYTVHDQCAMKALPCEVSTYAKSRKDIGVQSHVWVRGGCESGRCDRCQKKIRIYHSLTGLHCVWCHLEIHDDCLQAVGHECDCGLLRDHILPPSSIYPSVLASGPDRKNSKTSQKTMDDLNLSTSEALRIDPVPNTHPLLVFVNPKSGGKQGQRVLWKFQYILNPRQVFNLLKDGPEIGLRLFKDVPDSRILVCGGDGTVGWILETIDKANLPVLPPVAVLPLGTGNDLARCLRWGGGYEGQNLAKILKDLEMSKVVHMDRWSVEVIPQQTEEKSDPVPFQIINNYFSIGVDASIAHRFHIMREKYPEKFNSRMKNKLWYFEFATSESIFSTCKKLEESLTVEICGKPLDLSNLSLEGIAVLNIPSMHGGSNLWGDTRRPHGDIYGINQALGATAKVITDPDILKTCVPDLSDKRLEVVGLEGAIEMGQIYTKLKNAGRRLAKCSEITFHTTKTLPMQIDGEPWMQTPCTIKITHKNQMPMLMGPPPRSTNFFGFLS
human DGKζ, sequence (Q13574 whole entry, looked up): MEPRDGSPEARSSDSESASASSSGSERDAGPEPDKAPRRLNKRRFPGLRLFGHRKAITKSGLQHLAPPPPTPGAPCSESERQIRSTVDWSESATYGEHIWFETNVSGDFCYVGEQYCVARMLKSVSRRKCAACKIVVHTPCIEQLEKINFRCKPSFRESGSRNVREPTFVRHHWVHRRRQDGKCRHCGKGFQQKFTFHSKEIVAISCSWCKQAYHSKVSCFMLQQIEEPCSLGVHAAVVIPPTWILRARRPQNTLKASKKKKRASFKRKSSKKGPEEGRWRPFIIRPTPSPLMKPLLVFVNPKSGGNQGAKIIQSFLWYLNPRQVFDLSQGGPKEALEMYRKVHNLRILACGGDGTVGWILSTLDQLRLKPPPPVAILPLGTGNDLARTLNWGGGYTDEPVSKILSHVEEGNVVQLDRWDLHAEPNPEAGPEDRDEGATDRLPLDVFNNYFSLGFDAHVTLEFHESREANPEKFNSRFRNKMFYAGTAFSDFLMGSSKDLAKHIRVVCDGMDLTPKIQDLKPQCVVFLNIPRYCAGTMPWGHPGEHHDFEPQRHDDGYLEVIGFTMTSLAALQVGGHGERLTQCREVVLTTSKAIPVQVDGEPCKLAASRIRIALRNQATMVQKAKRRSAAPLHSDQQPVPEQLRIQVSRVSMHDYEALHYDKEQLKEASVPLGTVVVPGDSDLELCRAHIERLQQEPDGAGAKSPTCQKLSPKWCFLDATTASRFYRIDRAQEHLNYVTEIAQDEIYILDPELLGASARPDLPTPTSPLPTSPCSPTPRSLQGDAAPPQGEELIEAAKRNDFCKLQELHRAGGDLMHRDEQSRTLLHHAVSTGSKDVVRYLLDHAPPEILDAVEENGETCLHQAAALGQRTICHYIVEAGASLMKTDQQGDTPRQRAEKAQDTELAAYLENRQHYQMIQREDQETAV

| SMILES | IC50 (DGKα) | EC50 (naïve human CD8 T cells; Homo sapiens) | IC50 (human DGKζ; liposome (LIPGLO) assay) | EC50 [1] | IC50 ([2]; Mus musculus, MC-38) | EC50 (naïve human CD8 T cells) | IC50 (human DGKζ) | IC50 [2] |
| --- | --- | --- | --- | --- | --- | --- | --- | --- |
| Cc1cc(F)cc(OC2CCN(c3c([N+](=O)[O-])c(=O)n(C)c4ccc(F)cc34)CC2)c1 [Example 1, 6-fluoro-4-(4-(3-fluoro-5-methylphenoxy)piperidin-1-yl)-1-methyl-3-nitroquinolin-2(1H)-one] | 0.24 µM | 1.6 µM | 100 µM | 10 µM | 5.2 µM |  |  |  |
| Cn1c(=O)c(C#N)c(N2CCC(Oc3ccc(F)c(F)c3)CC2)c2nc(Cl)ccc21 [Example 12, 6-chloro-4-(4-(3,4-difluorophenoxy)piperidin-1-yl)-1-methyl-2-oxo-1,2-dihydro-1,5-naphthyridine-3-carbonitrile] | 3.2 µM | 2.3 µM | 27 µM | 5 µM | 3.8 µM |  |  |  |
| Cn1c(=O)c(C#N)c(N2CCC(Oc3ccccc3C(F)(F)F)CC2)c2nc(Cl)ccc21 [Example 11, 6-chloro-1-methyl-2-oxo-4-(4-(2-(trifluoromethyl)phenoxy)piperidin-1-yl)-1,2-dihydro-1,5-naphthyridine-3-carbonitrile] | 12 µM | 10 µM | 150 µM | 10 µM | 0.83 µM |  |  |  |
| COc1ccc(OC2CCN(c3c(C#N)c(=O)n(C)c4ccc(Cl)nc34)CC2)cc1 [Example 14, 6-chloro-4-(4-(4-methoxyphenoxy)piperidin-1-yl)-1-methyl-2-oxo-1,2-dihydro-1,5-naphthyridine-3-carbonitrile] | 0.25 µM | 0.28 µM | 13 µM | 7 µM | 0.83 µM |  |  |  |
| Cn1c(=O)c(C#N)c(N2CCC(Oc3ccc(OC(F)(F)F)c(F)c3)CC2)c2nc(Cl)ccc21 [Example 17, 6-chloro-4-(4-(3-fluoro-4-(trifluoromethoxy)phenoxy)piperidin-1-yl)-1-methyl-2-oxo-1,2-dihydro-1,5-naphthyridine-3-carbonitrile] | 1.1 µM | 0.47 µM | 240 µM | 10 µM | 1.1 µM |  |  |  |
| Cn1c(=O)c([N+](=O)[O-])c(N2CCC(Oc3ccc(OC(F)(F)F)cc3)CC2)c2cc(F)ccc21 [Example 3, 6-fluoro-1-methyl-3-nitro-4-(4-(4-(trifluoromethoxy)phenoxy)piperidin-1-yl)quinolin-2(1H)-one] | 0.11 µM | 0.49 µM | 240 µM | 10 µM | 1.5 µM |  |  |  |
| Cn1c(=O)c(C#N)c(N2CCC(Oc3ccc(OC(F)(F)F)cc3)CC2)c2nc(C#N)ccc21 [Example 50, 5-methyl-6-oxo-8-(4-(4-(trifluoromethoxy)phenoxy)piperidin-1-yl)-5,6-dihydro-1,5-naphthyridine-2,7-dicarbonitrile] | 1.6 µM | 0.055 µM | 12 µM | 5 µM | 0.99 µM |  |  |  |
| CN(C)C(=O)c1ccc(OC2CCN(c3c(C#N)c(=O)n(C)c4ccc(Cl)nc34)CC2)cc1 [Example 25, 4-((1-(6-chloro-3-cyano-1-methyl-2-oxo-1,2-dihydro-1,5-naphthyridin-4-yl)piperidin-4-yl)oxy)-N,N-dimethylbenzamide] | 0.73 µM | 1.2 µM | 240 µM |  | 10 µM |  |  |  |
| Cn1c(=O)c(C#N)c(N2CCC(Oc3ccc(OC(C)(C)C)cc3)CC2)c2nc(Cl)ccc21 [Example 31, 4-(4-(4-(tert-butoxy)phenoxy)piperidin-1-yl)-6-chloro-1-methyl-2-oxo-1,2-dihydro-1,5-naphthyridine-3-carbonitrile] | 0.28 µM | 0.044 µM | 11 µM |  | 10 µM |  |  |  |
| Cn1c(=O)c(C#N)c(N2CCC(Oc3ccc(OC(F)(F)F)cc3Cl)CC2)c2nc(Cl)ccc21 [Example 41, 6-chloro-4-(4-(2-chloro-4-(trifluoromethoxy)phenoxy)piperidin-1-yl)-1-methyl-2-oxo-1,2-dihydro-1,5-naphthyridine-3-carbonitrile] | 1.1 µM | 0.21 µM | 23 µM |  | 10 µM |  |  |  |
| Cn1c(=O)c(C#N)c(N2CCC(Oc3ccc(C(F)(F)F)cc3)CC2)c2nc(Cl)ccc21 [Example 30, 6-chloro-1-methyl-2-oxo-4-(4-(4-(trifluoromethyl)phenoxy)piperidin-1-yl)-1,2-dihydro-1,5-naphthyridine-3-carbonitrile] | 0.98 µM | 10 µM | 240 µM |  | 3.5 µM |  |  |  |
| Cn1c(=O)c(C#N)c(N2CCC(Oc3ccc(C#N)c(Cl)c3)CC2)c2nc(Cl)ccc21 [Example 38, 6-chloro-4-(4-(3-chloro-4-cyanophenoxy)piperidin-1-yl)-1-methyl-2-oxo-1,2-dihydro-1,5-naphthyridine-3-carbonitrile] | 1.8 µM | 1.6 µM | 9 µM |  | 10 µM |  |  |  |
| Cc1ccc(OC2CCN(c3c(C#N)c(=O)n(C)c4ccc(Cl)nc34)CC2)cc1Cl [Example 40, 6-chloro-4-(4-(3-chloro-4-methylphenoxy)piperidin-1-yl)-1-methyl-2-oxo-1,2-dihydro-1,5-naphthyridine-3-carbonitrile] | 0.74 µM | 1.2 µM | 9 µM |  | 10 µM |  |  |  |
| Cn1c(=O)c(C#N)c(N2CCC(Oc3cccc(OC(F)(F)F)c3)CC2)c2nc(Cl)ccc21 [Example 13, 6-chloro-1-methyl-2-oxo-4-(4-(3-(trifluoromethoxy)phenoxy)piperidin-1-yl)-1,2-dihydro-1,5-naphthyridine-3-carbonitrile] | 2 µM | 1.2 µM | 240 µM | 5 µM | 1.5 µM |  |  |  |
| COc1cccc(OC2CCN(c3c(C#N)c(=O)n(C)c4ccc(Cl)nc34)CC2)c1 [Example 10, 6-chloro-4-(4-(3-methoxyphenoxy)piperidin-1-yl)-1-methyl-2-oxo-1,2-dihydro-1,5-naphthyridine-3-carbonitrile] | 0.15 µM | 0.14 µM | 2.8 µM | 5 µM | 4.5 µM |  |  |  |
| Cn1c(=O)c(C#N)c(N2CCC(Oc3ccc(OC(F)(F)F)c(Cl)c3)CC2)c2nc(Cl)ccc21 [Example 42, 6-chloro-4-(4-(3-chloro-4-(trifluoromethoxy)phenoxy)piperidin-1-yl)-1-methyl-2-oxo-1,2-dihydro-1,5-naphthyridine-3-carbonitrile] | 5.4 µM | 0.7 µM | 240 µM |  | 10 µM |  |  |  |
| Cc1cc(OC(F)(F)F)ccc1OC1CCN(c2c(C#N)c(=O)n(C)c3ccc(Cl)nc23)CC1 [Example 29, -chloro-1-methyl-4-(4-(2-methyl-4-(trifluoromethoxy)phenoxy)piperidin-1-yl)-2-oxo-1,2-dihydro-1,5-naphthyridine-3-carbonitrile] | 3.8 µM |  |  |  |  | 5.9 µM | 240 µM | 10 µM |
| Cn1c(=O)c(C#N)c(N2CCC(Oc3ccccc3OC(F)(F)F)CC2)c2nc(Cl)ccc21 [Example 33, 6-chloro-1-methyl-2-oxo-4-(4-(2-(trifluoromethoxy)phenoxy)piperidin-1-yl)-1,2-dihydro-1,5-naphthyridine-3-carbonitrile] | 2.8 µM | 10 µM | 240 µM |  | 3.8 µM |  |  |  |
| Cn1c(=O)c(C#N)c(N2CCC(Oc3ccc(OC(F)(F)F)cc3)CC2)c2nc(Br)ccc21 [Example 47, 6-Bromo-1-methyl-2-oxo-4-(4-(4-(trifluoromethoxy)phenoxy)piperidin-1-yl)-1,2-dihydro-1,5-naphthyridine-3-carbonitrile] | 0.45 µM | 0.49 µM | 240 µM |  | 0.68 µM |  |  |  |
